Experimental data published in patent publication EP4610269A1, “UROKINASE PLASMINOGEN ACTIVATOR SURFACE RECEPTOR (UPAR) LIGANDS FOR DIAGNOSTIC OR THERAPEUTIC USE” (3B Pharmaceuticals GmbH, priority 2024, dated 2025).
Where a SMILES comes first, the peptide text is derived from it. Bridges are numbered along the chain shown (N, C = ends). [ ]: non-standard residue; d: D form. The star is where a group is joined. DOTA = O=C(O)CN1CCN(CC(=O)O)CCN(CC(=O)*)CCN(CC(=O)O)CC1; Pro(cis-4-F) = O=C(O)[C@@H]1C[C@H](F)CN1; Dopa = N[C@@H](Cc1ccc(O)c(O)c1)C(=O)O; Hyp = O=C(O)[C@@H]1C[C@@H](O)CN1; Pentanoyl(4-Me) = CC(C)CCC(=O)*; 2Thi = N[C@@H](Cc1cccs1)C(=O)O; Cit = NC(=O)NCCC[C@H](N)C(=O)O; Butoxycarbonyl = CCCCOC(=O)*; NMeC = CN[C@@H](CS)C(=O)O; Nle = CCCC[C@H](N)C(=O)O; Nva = CCC[C@H](N)C(=O)O; Hexanoyl = CCCCCC(=O)*; Pentanoyl = CCCCC(=O)*; Butyryl = CCCC(=O)*

Key:
[1] = target: T1, human uPAR (uPAR-Fc) (Homo sapiens, UniProt Q03405); test: Surface plasmon resonance (SPR) assay, single cycle kinetics; type: binding; details: pKD category for uPAR SPR activity assay; uPAR-Fc on Protein A-Chip, 25°C; read-out: pKD CAT (converted)
T1 construct: comprising amino acids Leu23-Arg303 according to UniProt entry Q03405.1; purchased R&D Systems 10378-UK-100
T1 sequence (Q03405 23-303): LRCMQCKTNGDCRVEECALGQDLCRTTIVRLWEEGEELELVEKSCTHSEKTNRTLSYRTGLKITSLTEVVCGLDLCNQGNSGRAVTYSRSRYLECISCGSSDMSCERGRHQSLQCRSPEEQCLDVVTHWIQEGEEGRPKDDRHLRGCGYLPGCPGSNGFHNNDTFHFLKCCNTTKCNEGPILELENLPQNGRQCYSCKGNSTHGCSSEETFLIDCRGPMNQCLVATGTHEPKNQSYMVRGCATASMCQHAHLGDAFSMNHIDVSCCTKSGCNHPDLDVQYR
Protocol: Surface plasmon resonance (SPR) is an optical technique used to measure molecular interactions in real time. SPR occur when plane-polarized light hits a metal film under total internal reflection conditions. SPR signal is directly dependent on the refractive index of the medium on the sensor chip. In an SPR experiment, one molecule (i.e. uPAR) is immobilized on a sensor chip and binding to a second molecule (i.e. test compounds) is measured under flow. The binding of the compound on the surface changes the refractive index. In responses the reflection angle changes as compounds bind and dissociate on the immobilized protein on the surface. This response is measured in resonance units (RU). The RUs are proportional to the number of molecules bound to the surface. […] Kinetic binding constants and equilibrium binding constants can be derived from the sensorgrams.
Surface plasmon resonance (SPR) studies were performed using a Biacore™ T200 or S200 SPR system (Cytiva, formerly GE Life Sciences) to assess binding of compounds to recombinant uPAR protein.
In this example recombinant protein comprising the extracellular domains of human uPAR (uPAR-Fc, R&D Systems, CAT 10378-UK-100, comprising amino acids Leu23-Arg303 according to UniProt entry Q03405.1 and Fc region of human IgG1 at the C-terminus) was immobilized on a Protein A-Chip (Cytiva, CAT 29127555) according to the supplier's instructions. uPAR-Fc was diluted in Running Buffer (10 mM HEPES, 150 mM NaCl, 50 µM EDTA, 0.1% DMSO, 0.05% Tween-20, pH 7.4) to a final concentration of 100 nM and then flushed over the Protein A-Chip to immobilized ~2000 RUs.
Stock solutions of test compounds were prepared by dissolving each compound in DMSO. DMSO stock solution were diluted 1: 1000 in Running Buffer without DMSO. Further sequential dilutions were made with Running Buffer containing 0.1% DMSO. SPR binding analyses were performed in Single Cycle Kinetic (SCK) mode at 25°C. Flow cell without immobilized uPAR-Fc served as reference flow cell. The chip was regenerated with 10 mM Glycine, pH 1,5 to remove the uPAR-Fc from the chip surface after each SCK run. After every three SCK measurements, a blank run with Running Buffer instead of test compound was included to correct for baseline drifts (double reference substraction method). Table 11: SPR protocol steps for SCK with uPAR-Fc immobilized on a Protein A-Chip.
For each test compound, SPR raw data sensorgrams were recorded using the Biacore™ T200 or S200 control software. Sensorgrams were processed and analyzed with the Biacore™ Insight Evaluation software. […] The reference subtracted sensorgram for each test compound was further corrected for baseline drift by subtracting the sensorgram of a reference subtracted blank run (Running Buffer only). The dissociation constant (KD) was calculated from the double reference subtracted sensorgrams using the 1:1 Langmuir binding model. The pKD value (negative decadic logarithm of dissociation constant) was calculated using Microsoft Excel.

[2] = target: T2, uPAR-expressing HEC-265 human endometrial adenocarcinoma cells (Homo sapiens, UniProt Q03405); test: Competitive FACS binding assay; details: pIC50 category of FACS binding
T2 construct: Cell surface uPAR-expressing HEC-265 human endometrial adenocarcinoma cells; host or cells: HEC-265
T2 sequence (Q03405 23-335): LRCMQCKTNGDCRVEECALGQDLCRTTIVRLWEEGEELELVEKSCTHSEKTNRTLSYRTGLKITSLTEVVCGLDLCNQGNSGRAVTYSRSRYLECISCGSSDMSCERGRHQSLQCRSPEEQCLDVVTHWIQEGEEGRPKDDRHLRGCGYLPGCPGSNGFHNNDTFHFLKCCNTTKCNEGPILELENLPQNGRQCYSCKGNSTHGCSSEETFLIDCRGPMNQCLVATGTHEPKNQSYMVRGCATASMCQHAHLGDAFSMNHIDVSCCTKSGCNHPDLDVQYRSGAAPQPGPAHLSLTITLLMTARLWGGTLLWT
Protocol: In order to determine binding of compounds according to the present invention to uPAR-expressing cells, a competitive FACS binding assay was established.
Cell surface uPAR-expressing HEC-265 human endometrial adenocarcinoma cells (Japanese Collection of Research Bioresources, #JCRB1142) were cultured in MEM Eagle with stable glutamine (Pan Biotech, #P04-09500) including 15% fetal bovine serum (Pan Biotech, #P30-3306) and 100 U/ml penicillin and 100 µg/mL streptomycin (Pan Biotech, #P06-07100). Cells were detached with Cell Dissociation Buffer (Thermo Scientific, #13151014) and washed in FACS buffer (PBS (Pan Biotech, #P04-36500) including 1% BSA (SeraCare, #AP-4510-80). Cells were diluted in FACS buffer to a final concentration of 500.000 cells per ml and 200 µl of the cell suspension are transferred to a u-shaped non-binding 96-well plate (Greiner Bio-One, #650901).
For IC50 determination, cells were incubated with 10 nM Bio--Ttds--Ttds--Ttds--Ttds-D-Cha-FsrYLWS-NH2) in the presence of increasing concentrations of non-labeled test compounds at 4°C for 1 hour. Cells were washed twice in FACS buffer. An additional incubation step with 1 µg/mL APC-Streptavidin (Miltenyi; #130-106-791) in 50 µL FACS buffer for 30 minutes on ice was performed followed by two washes with FACS buffer. Cells were resuspended in 200 µl FACS buffer and analyzed in an Attune NxT flow cytometer. Median fluorescence intensities (APC channel) were calculated by Attune NxT software and plotted against peptide concentrations. Four parameter logistic (4PL) curve fitting and pIC50 calculations were performed using ActivityBase software.

Structure (SMILES) | Kd [1] [µM] | IC50 [2] [µM]
CCCC[C@@H]1NC(=O)[C@H](CCCNC(=N)N)NC(=O)[C@@H](NC(=O)[C@H](CC(C)C)NC(=O)[C@@H](CC(=O)O)NC(C)=O)CSSC[C@@H](C(N)=O)NC(=O)[C@H](CC(C)C)NC(=O)[C@H]([C@@H](C)CC)NC(=O)[C@H](C)NC(=O)[C@@H]2CCCN2C(=O)[C@H](Cc2ccccc2)NC(=O)[C@H](Cc2ccc(O)cc2)NC1=O [UPAR-133, Ac-asp-Leu-[Cys-Arg-Nle-Tyr-Phe-Pro-Ala-Ile-Leu-Cys]-NH2] (Ac-[dD]LCR[Nle]YFPAILC-NH2; disulfide 3-12) | < 0.00158 | ≤ 0.01
CCCCOC(=O)N[C@H]1CSSC[C@@H](C(N)=O)NC(=O)[C@H](CCC)NC(=O)[C@H]([C@@H](C)CC)NC(=O)[C@@H]2C[C@@H](O)CN2C(=O)[C@@H]2CCCN2C(=O)[C@H](Cc2cccs2)NC(=O)[C@H](Cc2ccc(O)cc2)NC(=O)[C@H](CCCCNC(=O)CN2CCN(CC(=O)O)CCN(CC(=O)O)CCN(CC(=O)O)CC2)NC(=O)[C@H]([C@@H](C)O)NC1=O [UPAR-134, Butoc-[Cys-Thr-Lys(DOTA)-Tyr-Thi-Pro-Hyp-Ile-Nva-Cys]-NH2] (Butoxycarbonyl-CTK(DOTA)Y[2Thi]P[Hyp]I[Nva]C-NH2; disulfide 1-10) | < 0.00158 | ≤ 0.01
CCCCC(=O)N[C@H]1CSSC[C@@H](C(N)=O)NC(=O)[C@H](CCC)NC(=O)[C@H]([C@@H](C)CC)NC(=O)[C@@H]2C[C@@H](O)CN2C(=O)[C@@H]2C[C@@H](O)CN2C(=O)[C@H](Cc2ccccc2)NC(=O)[C@H](Cc2ccc(O)cc2)NC(=O)[C@H](CCCCNC(=O)CN2CCN(CC(=O)O)CCN(CC(=O)O)CCN(CC(=O)O)CC2)NC(=O)[C@H]([C@@H](C)O)NC1=O [UPAR-135, Pent-[Cys-Thr-Lys(DOTA)-Tyr-Phe-Hyp-Hyp-Ile-Nva-Cys]-NH2] (Pentanoyl-CTK(DOTA)YF[Hyp][Hyp]I[Nva]C-NH2; disulfide 1-10) | < 0.00158 | ≤ 0.01
CCC[C@@H]1NC(=O)[C@@H](C)NC(=O)[C@@H]2CCCN2C(=O)[C@H](Cc2ccccc2)NC(=O)[C@H](Cc2ccc(O)cc2)NC(=O)[C@H](CCC(N)=O)NC(=O)[C@H](CCCNC(N)=O)NC(=O)[C@@H](NC(=O)CCC(C)C)CSSC[C@@H](C(N)=O)NC(=O)[C@H](CC(C)C)NC1=O [UPAR-136, iHex-[Cys-Cit-Gln-Tyr-Phe-Pro-ala-Nva-Leu-Cys]-NH2] ({Pentanoyl(4-Me)}-C[Cit]QYFP[dA][Nva]LC-NH2; disulfide 1-10) | 0.00158 to 0.01 | ≤ 0.01
CCCC[C@@H]1NC(=O)[C@H](CCCNC(=N)N)NC(=O)[C@@H](NC(=O)[C@H](CC(C)C)NC(=O)[C@H](CC(=O)O)NC(C)=O)CSSC[C@@H](C(N)=O)NC(=O)[C@@H](CC(C)C)NC(=O)[C@H]([C@@H](C)CC)NC(=O)[C@H](C)NC(=O)[C@@H]2CCCN2C(=O)[C@H](Cc2ccccc2)NC(=O)[C@H](Cc2ccc(O)cc2)NC1=O [UPAR-137, Ac-Asp-Leu-[Cys-Arg-Nle-Tyr-Phe-Pro-Ala-Ile-leu-Cys]-NH2] (Ac-DLCR[Nle]YFPAI[dL]C-NH2; disulfide 3-12) | 0.00158 to 0.01 | 0.0126 to 0.0316
CCCC(=O)N[C@H]1CSSC[C@@H](C(N)=O)NC(=O)[C@H](CC(C)C)NC(=O)[C@H]([C@@H](C)CC)NC(=O)[C@@H](C)NC(=O)[C@@H]2CCCN2C(=O)[C@H](Cc2ccccc2)NC(=O)[C@H](Cc2ccc(O)cc2)NC(=O)[C@H](CCC(N)=O)NC(=O)[C@H](CCCNC(N)=O)NC1=O [UPAR-139, But-[Cys-Cit-Gln-Tyr-Phe-Pro-ala-Ile-Leu-Cys]-NH2] (Butyryl-C[Cit]QYFP[dA]ILC-NH2; disulfide 1-10) | 0.00158 to 0.01 | 0.0126 to 0.0316
CCCCCC(=O)N[C@@H](CCCCNC(=O)CN1CCN(CC(=O)O)CCN(CC(=O)O)CCN(CC(=O)O)CC1)C(=O)N[C@@H](CC(C)C)C(=O)N[C@H]1CSSC[C@@H](C(N)=O)NC(=O)[C@H](CC(C)C)NC(=O)[C@H]([C@@H](C)CC)NC(=O)[C@H](C)NC(=O)[C@@H]2CCCN2C(=O)[C@H](Cc2ccccc2)NC(=O)[C@H](Cc2ccc(O)cc2)NC(=O)[C@H](CCSC)NC(=O)[C@H](CCCNC(=N)N)NC1=O [UPAR-140, Hex-Lys(DOTA)-Leu-[Cys-Arg-Met-Tyr-Phe-Pro-Ala-Ile-Leu-Cys]-NH2] (Hexanoyl-K(DOTA)LCRMYFPAILC-NH2; disulfide 3-12) | < 0.00158 | ≤ 0.01
CCCCOC(=O)N[C@H]1CSSC[C@@H](C(=O)N[C@@H](CC(=O)O)C(N)=O)NC(=O)[C@H](CCC)NC(=O)[C@H]([C@@H](C)CC)NC(=O)[C@@H]2C[C@@H](O)CN2C(=O)[C@@H]2C[C@H](F)CN2C(=O)[C@H](Cc2ccccc2)NC(=O)[C@H](Cc2ccc(O)cc2)NC(=O)[C@H](CCCCNC(=O)CN2CCN(CC(=O)O)CCN(CC(=O)O)CCN(CC(=O)O)CC2)NC(=O)[C@H]([C@@H](C)O)NC1=O [UPAR-141, Butoc-[Cys-Thr-Lys(DOTA)-Tyr-Phe-4Cfp-Hyp-Ile-Nva-Cys]-Asp-NH2] (Butoxycarbonyl-CTK(DOTA)YF[Pro(cis-4-F)][Hyp]I[Nva]CD-NH2; disulfide 1-10) | 0.01 to 0.1 | 0.0398 to 0.1
CCC[C@@H]1NC(=O)[C@H]([C@@H](C)CC)NC(=O)[C@@H]2C[C@@H](O)CN2C(=O)[C@@H]2CCCN2C(=O)[C@H](Cc2ccccc2)NC(=O)[C@H](Cc2ccc(O)cc2)NC(=O)[C@H](CCC(N)=O)NC(=O)[C@H](CCCNC(N)=O)NC(=O)[C@@H](N(C)C(=O)[C@H](CC(C)C)NC(=O)CN2CCN(CC(=O)O)CCN(CC(=O)O)CCN(CC(=O)O)CC2)CSSC[C@@H](C(N)=O)NC1=O [UPAR-142, DOTA-Leu-[Nmc-Cit-Gln-Tyr-Phe-Pro-Hyp-Ile-Nva-Cys]-NH2] ({DOTA}-L[NMeC][Cit]QYFP[Hyp]I[Nva]C-NH2; disulfide 2-11) | 0.01 to 0.1 | ≥ 0.126
CCCCCC(=O)N[C@H](C(=O)N[C@@H](CC(C)C)C(=O)N[C@H]1CSSC[C@@H](C(N)=O)NC(=O)[C@H](CC(C)C)NC(=O)[C@H]([C@@H](C)CC)NC(=O)[C@H](C)NC(=O)[C@@H]2CCCN2C(=O)[C@H](Cc2ccccc2)NC(=O)[C@H](Cc2ccc(O)cc2)NC(=O)[C@H](Cc2ccc(O)cc2)NC(=O)[C@H](CCC(=O)O)NC1=O)[C@@H](C)O [UPAR-143, Hex-Thr-Leu-[Cys-Glu-Tyr-Tyr-Phe-Pro-Ala-Ile-Leu-Cys]-NH2] (Hexanoyl-TLCEYYFPAILC-NH2; disulfide 3-12) | < 0.00158 | ≤ 0.01
CC[C@H](C)[C@@H]1NC(=O)[C@@H](C)NC(=O)[C@@H]2CCCN2C(=O)[C@H](Cc2ccccc2)NC(=O)[C@H](Cc2ccc(O)c(O)c2)NC(=O)[C@H](CCC(N)=O)NC(=O)[C@H](CCCNC(N)=O)NC(=O)[C@@H](NC(=O)CCC(C)C)CSSC[C@@H](C(N)=O)NC(=O)[C@H](CC(C)C)NC1=O [UPAR-144, iHex-[Cys-Cit-Gln-Dopa-Phe-Pro-ala-Ile-Leu-Cys]-NH2] ({Pentanoyl(4-Me)}-C[Cit]Q[Dopa]FP[dA]ILC-NH2; disulfide 1-10) | < 0.00158 | ≤ 0.01
